In ChEMBL document CHEMBL5365500, “Development and Antibacterial Properties of 4-[4-(Anilinomethyl)-3-phenylpyrazol-1-yl]benzoic Acid Derivatives as Fatty Acid Biosynthesis Inhibitors” (J Med Chem, 2023):
≈ marks a conversion by molar mass, not a printed value.

Assays:
Assay type in all cases: functional
[1] = test system: Bacillus subtilis; assay: Antimicrobial activity against antibiotic-resistant Bacillus subtilis ATCC 6623 assessed as inhibition of visible growth measured after 20 to 24 hrs incubation by CLSI method; conditions: time 20-24 hrs
[2] = test system: Staphylococcus aureus; assay: Antimicrobial activity against antibiotic-resistant Staphylococcus aureus ATCC 33591 assessed as inhibition of visible growth measured after 20 to 24 hrs incubation by CLSI method; conditions: time 20-24 hrs
[3] = test system: Staphylococcus epidermidis; assay: Antimicrobial activity against antibiotic-resistant Staphylococcus epidermidis ATCC 700296 assessed as inhibition of visible growth measured after 20 to 24 hrs incubation by CLSI method; conditions: time 20-24 hrs
[4] = test system: Staphylococcus aureus; assay: In vivo antimicrobial activity against Staphylococcus aureus UAMS-1 infected in Caenorhabditis elegans AU37 nematodes assessed as viability of nematodes incubated for 5 days by susceptibility test; conditions: UAMS-1, 120 h, time 5 day
[5] = test system: Staphylococcus aureus; assay: In vivo antimicrobial activity against Staphylococcus aureus Newman infected in Caenorhabditis elegans AU37 nematodes assessed as viability of nematodes incubated for 5 days by susceptibility test; conditions: 120 h, time 5 day
[6] = test system: Enterococcus faecalis; assay: Antimicrobial activity against antibiotic-resistant Enterococcus faecalis ATCC 51299 assessed as inhibition of visible growth measured after 20 to 24 hrs incubation by CLSI method; conditions: time 20-24 hrs
[7] = test system: Staphylococcus aureus; assay: Antimicrobial activity against Staphylococcus aureus ATCC 25923 assessed as inhibition of visible growth measured after 20 to 24 hrs incubation by CLSI method; conditions: time 20-24 hrs
[8] = test system: Enterococcus faecalis; assay: Antimicrobial activity against antibiotic-susceptible Enterococcus faecalis ATCC 29212 assessed as inhibition of visible growth measured after 20 to 24 hrs incubation by CLSI method; conditions: time 20-24 hrs
[9] = test system: Staphylococcus aureus; assay: Antimicrobial activity against antibiotic-resistant Staphylococcus aureus ATCC BAA-2312 assessed as inhibition of visible growth measured after 20 to 24 hrs incubation by CLSI method; conditions: time 20-24 hrs
[10] = test system: Enterococcus faecium; assay: Antimicrobial activity against antibiotic-resistant Enterococcus faecium ATCC 700221 assessed as inhibition of visible growth measured after 20 to 24 hrs incubation by CLSI method; conditions: time 20-24 hrs
[11] = test system: Staphylococcus aureus; assay: In vivo antimicrobial activity against Staphylococcus aureus USA300 infected in Caenorhabditis elegans AU37 nematodes assessed as viability of nematodes incubated for 5 days by susceptibility test; conditions: USA300, 120 h, time 5 day
[12] = test system: Staphylococcus aureus; assay: Antimicrobial activity against antibiotic-resistant Staphylococcus aureus ATCC 700699 assessed as inhibition of visible growth measured after 20 to 24 hrs incubation by CLSI method; conditions: time 20-24 hrs
[13] = test system: Staphylococcus aureus; assay: Antimicrobial activity against antibiotic-resistant Staphylococcus aureus ATCC 33592 assessed as inhibition of visible growth measured after 20 to 24 hrs incubation by CLSI method; conditions: time 20-24 hrs

Compound: O=C(O)c1ccc(-n2cc(CNc3ccc(Cl)c(Cl)c3)c(-c3ccc(F)cc3)n2)cc1
- MIC [1]: 1 µg/mL (≈ 2.19 µM)
- MIC [2]: 0.5 µg/mL (≈ 1.1 µM)
- MIC [3]: 4 µg/mL (≈ 8.77 µM)
- MIC [4]: 1 µg/mL (≈ 2.19 µM)
- MIC [5]: 1 µg/mL (≈ 2.19 µM)
- MIC [6]: > 32 µg/mL
- MIC [7]: 2 µg/mL (≈ 4.38 µM)
- MIC [8]: > 32 µg/mL
- MIC [9]: 1 µg/mL (≈ 2.19 µM)
- MIC [10]: > 32 µg/mL
- MIC [11]: 1 µg/mL (≈ 2.19 µM)
- MIC [12]: 1 µg/mL (≈ 2.19 µM)
- MIC [13]: 2 µg/mL (≈ 4.38 µM)

Compound: O=C(O)c1ccc(-n2cc(CNc3cc(Cl)cc(C(F)(F)F)c3)c(-c3ccc(F)c(F)c3)n2)cc1
- MIC [1]: 0.5 µg/mL (≈ 0.985 µM)
- MIC [2]: 0.5 µg/mL (≈ 0.985 µM)
- MIC [3]: 2 µg/mL (≈ 3.94 µM)
- MIC [4]: 1 µg/mL (≈ 1.97 µM)
- MIC [5]: 0.5 µg/mL (≈ 0.985 µM)
- MIC [6]: 2 µg/mL (≈ 3.94 µM)
- MIC [7]: 1 µg/mL (≈ 1.97 µM)
- MIC [8]: 4 µg/mL (≈ 7.88 µM)
- MIC [9]: 0.5 µg/mL (≈ 0.985 µM)
- MIC [10]: 2 µg/mL (≈ 3.94 µM)
- MIC [11]: 1 µg/mL (≈ 1.97 µM)
- MIC [12]: 1 µg/mL (≈ 1.97 µM)
- MIC [13]: 1 µg/mL (≈ 1.97 µM)

Compound: O=C(O)c1ccc(-n2cc(CNc3ccc(F)cc3)c(-c3ccc(F)c(F)c3)n2)cc1
- MIC [1]: > 32 µg/mL
- MIC [2]: > 32 µg/mL
- MIC [3]: > 32 µg/mL
- MIC [6]: > 32 µg/mL
- MIC [7]: > 32 µg/mL
- MIC [8]: > 32 µg/mL
- MIC [9]: > 32 µg/mL
- MIC [10]: > 32 µg/mL
- MIC [12]: > 32 µg/mL
- MIC [13]: > 32 µg/mL

Compound: O=C(O)c1ccc(-n2cc(CNc3cc(Cl)c(F)cc3F)c(-c3ccc(F)c(F)c3)n2)cc1
- MIC [1]: > 32 µg/mL
- MIC [2]: > 32 µg/mL
- MIC [3]: > 32 µg/mL
- MIC [6]: > 32 µg/mL
- MIC [7]: > 32 µg/mL
- MIC [8]: > 32 µg/mL
- MIC [9]: > 32 µg/mL
- MIC [10]: > 32 µg/mL
- MIC [12]: > 32 µg/mL
- MIC [13]: > 32 µg/mL

Compound: O=C(O)c1ccc(-n2cc(CNc3cc(F)cc(C(F)(F)F)c3)c(-c3cccc(F)c3)n2)cc1
- MIC [1]: 1 µg/mL (≈ 2.11 µM)
- MIC [2]: 1 µg/mL (≈ 2.11 µM)
- MIC [3]: 4 µg/mL (≈ 8.45 µM)
- MIC [6]: 8 µg/mL (≈ 16.9 µM)
- MIC [7]: 2 µg/mL (≈ 4.22 µM)
- MIC [8]: 8 µg/mL (≈ 16.9 µM)
- MIC [9]: 2 µg/mL (≈ 4.22 µM)
- MIC [10]: 4 µg/mL (≈ 8.45 µM)
- MIC [12]: 2 µg/mL (≈ 4.22 µM)
- MIC [13]: 1 µg/mL (≈ 2.11 µM)

Compound: O=C(O)c1ccc(-n2cc(CNc3cc(Cl)c(F)c(Cl)c3)c(-c3ccc(F)c(F)c3)n2)cc1
- MIC [1]: 0.5 µg/mL (≈ 1.02 µM)
- MIC [2]: 0.25 µg/mL (≈ 0.508 µM)
- MIC [3]: 2 µg/mL (≈ 4.06 µM)
- MIC [6]: 4 µg/mL (≈ 8.13 µM)
- MIC [7]: 1 µg/mL (≈ 2.03 µM)
- MIC [8]: 4 µg/mL (≈ 8.13 µM)
- MIC [9]: 0.5 µg/mL (≈ 1.02 µM)
- MIC [10]: 1 µg/mL (≈ 2.03 µM)
- MIC [12]: 1 µg/mL (≈ 2.03 µM)
- MIC [13]: 1 µg/mL (≈ 2.03 µM)

Compound: O=C(O)c1ccc(-n2cc(CNc3ccc(Br)cc3)c(-c3ccc(F)c(F)c3)n2)cc1
- MIC [1]: > 32 µg/mL
- MIC [2]: > 32 µg/mL
- MIC [3]: > 32 µg/mL
- MIC [6]: > 32 µg/mL
- MIC [7]: > 32 µg/mL
- MIC [8]: > 32 µg/mL
- MIC [9]: > 32 µg/mL
- MIC [10]: > 32 µg/mL
- MIC [12]: > 32 µg/mL
- MIC [13]: > 32 µg/mL

Compound: O=C(O)c1ccc(-n2cc(CNc3ccc(F)c(F)c3)c(-c3cccc(F)c3)n2)cc1
- MIC [1]: 8 µg/mL (≈ 18.9 µM)
- MIC [2]: 16 µg/mL (≈ 37.8 µM)
- MIC [3]: 32 µg/mL (≈ 75.6 µM)
- MIC [6]: 32 µg/mL (≈ 75.6 µM)
- MIC [7]: 16 µg/mL (≈ 37.8 µM)
- MIC [8]: > 32 µg/mL
- MIC [9]: 16 µg/mL (≈ 37.8 µM)
- MIC [10]: 32 µg/mL (≈ 75.6 µM)
- MIC [12]: 16 µg/mL (≈ 37.8 µM)
- MIC [13]: 16 µg/mL (≈ 37.8 µM)

Compound: O=C(O)c1ccc(-n2cc(CNc3ccc(Cl)c(Cl)c3)c(-c3cccc(F)c3)n2)cc1
- MIC [1]: 1 µg/mL (≈ 2.19 µM)
- MIC [2]: 1 µg/mL (≈ 2.19 µM)
- MIC [3]: 4 µg/mL (≈ 8.77 µM)
- MIC [6]: 8 µg/mL (≈ 17.5 µM)
- MIC [7]: 2 µg/mL (≈ 4.38 µM)
- MIC [8]: 8 µg/mL (≈ 17.5 µM)
- MIC [9]: 2 µg/mL (≈ 4.38 µM)
- MIC [10]: 4 µg/mL (≈ 8.77 µM)
- MIC [12]: 2 µg/mL (≈ 4.38 µM)
- MIC [13]: 4 µg/mL (≈ 8.77 µM)

Compound: O=C(O)c1ccc(-n2cc(CNc3ccc(Cl)c(Cl)c3)c(-c3ccc(F)c(F)c3)n2)cc1
- MIC [1]: 0.5 µg/mL (≈ 1.05 µM)
- MIC [2]: 0.5 µg/mL (≈ 1.05 µM)
- MIC [3]: 2 µg/mL (≈ 4.22 µM)
- MIC [6]: 8 µg/mL (≈ 16.9 µM)
- MIC [7]: 1 µg/mL (≈ 2.11 µM)
- MIC [8]: 4 µg/mL (≈ 8.43 µM)
- MIC [9]: 1 µg/mL (≈ 2.11 µM)
- MIC [10]: 2 µg/mL (≈ 4.22 µM)
- MIC [12]: 2 µg/mL (≈ 4.22 µM)
- MIC [13]: 1 µg/mL (≈ 2.11 µM)

Compound: O=C(O)c1ccc(-n2cc(CNc3ccc(F)c(F)c3F)c(-c3ccc(F)c(F)c3)n2)cc1
- MIC [1]: 2 µg/mL (≈ 4.35 µM)
- MIC [2]: 2 µg/mL (≈ 4.35 µM)
- MIC [3]: > 32 µg/mL
- MIC [6]: > 32 µg/mL
- MIC [7]: > 32 µg/mL
- MIC [8]: > 32 µg/mL
- MIC [9]: 8 µg/mL (≈ 17.4 µM)
- MIC [10]: > 32 µg/mL
- MIC [12]: > 32 µg/mL
- MIC [13]: > 32 µg/mL

Compound: O=C(O)c1ccc(-n2cc(CNc3cccc(OC(F)(F)F)c3)c(-c3ccc(F)cc3)n2)cc1
- MIC [1]: 2 µg/mL (≈ 4.24 µM)
- MIC [2]: 2 µg/mL (≈ 4.24 µM)
- MIC [3]: 8 µg/mL (≈ 17 µM)
- MIC [6]: 16 µg/mL (≈ 33.9 µM)
- MIC [7]: 4 µg/mL (≈ 8.49 µM)
- MIC [8]: 16 µg/mL (≈ 33.9 µM)
- MIC [9]: 4 µg/mL (≈ 8.49 µM)
- MIC [10]: 16 µg/mL (≈ 33.9 µM)
- MIC [12]: 8 µg/mL (≈ 17 µM)
- MIC [13]: 8 µg/mL (≈ 17 µM)
